Entries after “also recorded” stand apart in the source; their conditions may differ.
What was measured:
Assay type in all cases: cell-based
[1] = tested on: deoxyhypusyl hydroxylase activity in human B-lymphocytes; experiment: Cellular deoxyhypusyl hydroxylase in human B-lymphocytes; conditions: FIG. 3a
Method: (§1) In FIG. 3a, the effect on the human enzyme was determined by measuring in proliferating cultured B-lymphocytes the covalent incorporation of tritiated spermidine-derived label into cellular protein, after standard hydrolysis, chromatographic separation of amino acids, and expression of the results relative to uninhibited controls. In FIG. 3b, a standard chromatographic elution profile is shown as obtained from cultured human smooth muscle cells ("SMC"), grown out of coronary atherosclerotic lesions and metabolically labeled in the absence and presence of L-mimosine. […]
(§2) The cellular conversion of the precursor deoxyhypusine to the hydroxylated hypusine in cells was examined, after preincubation with the inhibitor for 60 minutes, by labeling the human cells with ^3 H-spermidine (5 μCi/ml) in 25 cm^2 flasks (1×10^6 cells/flask) for 24 hours prior to cell lysis, precipitation with 10% TCA containing 1 mM each of putrescine, spermidine, and spermine, and hydrolysis in 6 N HCl at 110° C. for 16 hours. The hydrolysate was analyzed for labeled amino acids on an amino acid analyzer by published methods (Park et al., J. Biol. Chem., 257:7217-7222 (1982), which is hereby incorporated by reference). The retention of purified hypusine and deoxyhypusine was determined from standards.

[2] = tested on: deoxyhypusyl hydroxylase activity in human smooth muscle cells; experiment: Cellular deoxyhypusyl hydroxylase in human smooth muscle cells; conditions: FIG. 3b
Method: as §1, §2

[3] = biological target: T1, prolyl 4-hydroxylase in human coronary smooth muscle cells (SMC) (Homo sapiens, UniProt P13674); experiment: Assay of cellular human prolyl 4-hydroxylase in lesion-derived SMC (3H-proline labeling); conditions: upon removal of the inhibitor
T1 construct: 3H-proline to 3H-hydroxyproline conversion
T1 sequence (P13674 18-534): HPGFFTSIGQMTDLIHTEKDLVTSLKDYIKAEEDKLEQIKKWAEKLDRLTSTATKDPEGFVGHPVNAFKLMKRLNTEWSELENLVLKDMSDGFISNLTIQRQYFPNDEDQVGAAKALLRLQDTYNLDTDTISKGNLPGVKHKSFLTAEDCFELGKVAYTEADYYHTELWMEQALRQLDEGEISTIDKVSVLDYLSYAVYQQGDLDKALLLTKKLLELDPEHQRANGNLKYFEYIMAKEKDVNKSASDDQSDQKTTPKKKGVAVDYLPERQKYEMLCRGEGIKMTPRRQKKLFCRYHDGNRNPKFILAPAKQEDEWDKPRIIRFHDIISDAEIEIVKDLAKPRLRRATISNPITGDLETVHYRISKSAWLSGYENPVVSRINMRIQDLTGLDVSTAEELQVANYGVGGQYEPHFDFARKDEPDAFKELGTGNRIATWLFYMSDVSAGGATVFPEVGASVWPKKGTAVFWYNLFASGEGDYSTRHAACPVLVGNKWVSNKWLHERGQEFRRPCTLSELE
T1 sequence (P07237 18-508 partner): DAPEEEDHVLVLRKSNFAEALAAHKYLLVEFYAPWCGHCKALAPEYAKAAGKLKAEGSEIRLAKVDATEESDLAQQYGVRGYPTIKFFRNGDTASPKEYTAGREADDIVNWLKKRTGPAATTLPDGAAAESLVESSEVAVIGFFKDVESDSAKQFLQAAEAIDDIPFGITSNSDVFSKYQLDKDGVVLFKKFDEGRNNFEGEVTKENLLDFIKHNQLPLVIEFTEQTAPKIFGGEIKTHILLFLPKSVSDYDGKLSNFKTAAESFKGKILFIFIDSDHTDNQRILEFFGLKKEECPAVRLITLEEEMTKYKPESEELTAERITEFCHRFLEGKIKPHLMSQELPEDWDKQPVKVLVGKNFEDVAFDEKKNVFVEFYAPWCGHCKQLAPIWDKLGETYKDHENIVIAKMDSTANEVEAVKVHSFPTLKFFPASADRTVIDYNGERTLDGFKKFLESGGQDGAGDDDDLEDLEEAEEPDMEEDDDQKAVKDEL
Method: Those SMC, immunocytochemically identified by reactivity to contractile α-actinas shown in FIGS. 4b and 4c were pretreated with inhibitor for 30 minutes prior to routine metabolic labeling with tritiated proline ("^3 H-Pro") for 24 hours, followed by standard hydrolysis and separation of amino acids from both supernatant and cells. The degree of inhibition of scar collagen formation was determined by measuring formation of tritiated hydroxyproline ("^3 H-Hyp").
Human coronary artery smooth muscle cells ("SMC") were isolated from specimens collected immediately after directional rotary atherectomy (Simpson AtheroCath, DVI, Inc., Redwood City, Calif.). […] To verify the SMC phenotype of the cultures, cells were plated onto LabTek 8-chamber slides and stained by indirect immunofluorescence for the SMC marker contractile α-actin, using a mouse monoclonal antibody specific for the contractile smooth muscle α-actin (clone No. IA4; Sigma) which was detected with FITC- or peroxidase-labeled […] (Sigma). […] Results were photodocumented with a Nikon Labophot 2 fluorescence microscope. […]

type I procollagen = experiment: Type I procollagen secretion by SMC; conditions: human SMC, FIG. 6b
Method: (§3) Type III collagen biosynthesis (FIG. 6a) was assessed by a commercial radioimmunoassay using a monoclonal antibody to the N-terminal propeptide of type III procollagen. Plasminogen activator inhibitor-1 ("PAI-1") activity was measured by a standard enzymatic method. Type I collagen biosynthesis (FIG. 6b) was assessed by routine Western blot using a monoclonal antibody to the C-terminal propeptide of type I procollagen.
(§4) SMC or MRC-5 cells (3-5×10^6 cells/35 mm well), incubated in serum-free DMEM containing 50 μg/ml sodium ascorbate and 20 μg/ml β-aminopropionitrile, are exposed for 24 hours to increasing concentrations of hydroxypyridones. After centrifugation, to clear any cellular debris, these supernatants are used to determine the levels of type I and III procollagens, using commercially available radioimmunoassays (Incstar and Behringwerke, respectively).
(§5) Human SMC (3-5×10^5 cells/35 mm well), grown to confluency and incubated in serum-free DMEM containing 50 μg/ml sodium ascorbate and 20 μg/ml β-aminopropionitrile, were exposed for 24 hours to increasing concentrations of test compounds. […] Type I procollagen biosynthesis also was quantified by Western analysis in the following manner. […] Immunoblots were scanned with a UMAX UC630 flatbed scanner and quantified densitometrically using standard software.

type III procollagen = experiment: Type III procollagen secretion by SMC; conditions: human SMC, FIG. 6a
Method: as §3, §4, §5

[4] = tested on: plasminogen activator inhibitor-1 (PAI-1); experiment: Plasminogen activator inhibitor assay, SMC supernatants; conditions: human SMC, FIG. 6
Method: as §3
Supernatants of human SMC incubated with the hydroxypyridone L-mimosine under serum-free conditions (to avoid plasma-derived inhibitors) were tested for their ability to inhibit a standard amount of urokinase-type plasminogen activator (uPA) in the presence of plasminogen and the fluorometric peptide plasmin substrate d-Val-Leu-Lys-aminomethylcoumarin (Enzyme Systems, Livermore, Calif.). Inhibition of plasmin generation was compared to a standard curve of human PAI-1 (American Diagnostica, Greenwich, Conn.) to yield PAI-1 activity.

In the case of `N[C@@H](Cn1ccc(=O)c(O)c1)C(=O)O` [L-Mimosine], the “inhibition of deoxyhypusyl hydroxylase activity” value [1] is reported as “inhibit deoxyhypusyl hydroxylase activity”, the “inhibition of deoxyhypusyl hydroxylase activity” value [2] is reported as “inhibit deoxyhypusyl hydroxylase activity; also recorded: label is shifted to the unhydroxylated precursor of Hps” and the “reversibility of suppression of cellular prolyl hydroxylase activity” value [3] is reported as “rapidly reversible”. The “inhibition of secretion of procollagen type I” value (type I procollagen) was “potent inhibitor; also recorded: selectively suppressive effect”, the “inhibition of secretion of procollagen type III” value (type III procollagen) was “potent inhibitor; also recorded: selectively suppressive effect” and the “secretion of plasminogen activator inhibitor-1 (PAI-1)” value [4] was “not affected; also recorded: not on release of plasminogen activator inhibitor-1”.

From patent US6046219A, “Method for the treatment of conditions mediated by collagen formation together with cell proliferation by application of inhibitors of protein hydroxylation” (Cornell Research Foundation, Inc., priority 1997, dated 2000)
